Square brackets hold non-standard residues; d marks the D form. Peptide text beside a SMILES is read from it. * marks the point of attachment. dBpa = N[C@H](Cc1ccc(C(=O)c2ccccc2)cc1)C(=O)O; Boc = CC(C)(C)OC(=O)*; Aib = CC(C)(N)C(=O)O; Bn = c1ccc(C*)cc1

One test relates to γ-secretase (production of total Aβ). The test can be described thus: Inhibition of total Aβ production in APP-transfected cells (sandwich ELISA). It counts as cell-based. The settings on record: cell-based assay, CHO cells stably transfected with human APP; read-out: IC50 (concentration of compound that reduced production of total Aβ by 50%). From the text: Based on the helical model for the APP transmembrane domain, we have identified short peptides designed to adopt a similar conformation that block γ-secretase activity. Judicious replacement of selected residues of short APP-derived peptides with 2-aminoisobutyric acid (Aib), a known helix-inducing amino acid (19, 20), provided peptides that, in principle, mimic the γ-secretase cleavage site on one face of the helix, with Aib residues on the other face. We have identified Aib-containing peptides (see below) that inhibit Aβ production in APP-transfected cells with IC50's as low as 2 μM. […] We also discovered that an Aib decapeptide that is not based on the APP sequence (VIIb in ref 19: […] The crystal structure of this compound has been determined, and the peptide is fully helical (19). […] These peptides likewise assume a helical conformation, although of the opposite sense (left-handed instead of right-handed). Thus, the invention advantageously provides helical peptidomimetics having improved metabolic stability. […] IC50 is the concentration of compound that reduced production of total Aβ by 50% in a cell-based assay using CHO cells stably transfected with human APP. […] The 15 D-peptides, varied in first position, are tested for their ability to inhibit total Aβ production in APP-transfected cell lines using a sensitive, quantitative, and convenient sandwich ELISA as we have previously described (12, 13). The compound best able to reduce Aβ production is then used as a starting point for the synthesis of a second round of peptide synthesis, 15 compounds each defined at the second position and containing the optimal first residue. In this iterative fashion, the optimal residue for each position is determined.
On to `CC[C@H](C)[C@H](NC(=O)C(C)(C)NC(=O)[C@@H](NC(=O)OC(C)(C)C)C(C)C)C(=O)N[C@@H](C)C(=O)N[C@H](C(=O)NC(C)(C)C(=O)N[C@H](C(=O)N[C@H](C(=O)NC(C)(C)C(=O)OC)C(C)C)[C@@H](C)CC)[C@@H](C)OCc1ccccc1` [Compound 4, Boc-Val-Aib-Ile-Ala-Thr(OBz)-Aib-Ile-Val-Aib-OMe] (Boc-V[Aib]IAT(Bn)[Aib]IV[Aib]-OMe), for which the IC50 stood at 2 µM.

Take `CC[C@H](C)[C@H](NC(=O)[C@@H](NC(=O)[C@@H](NC(=O)C(C)(C)NC(=O)OC(C)(C)C)C(C)C)C(C)C)C(=O)NC(C)(C)C(=O)N[C@H](C(=O)N[C@H](C(=O)NC(C)(C)C(=O)OC)C(C)C)[C@@H](C)OCc1ccccc1` [Compound 8, Boc-Aib-Val-Val-Ile-Aib-Thr(OBz)-Val-Aib-OMe] (Boc-[Aib]VVI[Aib]T(Bn)V[Aib]-OMe): the IC50 is 6 µM. On the same count and under the same terms, next, `CC[C@H](C)[C@H](NC(=O)C(C)(C)NC(=O)[C@@H](NC(=O)CNC(=O)OC(C)(C)C)C(C)C)C(=O)N[C@@H](C)C(=O)N[C@H](C(=O)NC(C)(C)C(=O)N[C@H](C(=O)N[C@H](C(=O)NC(C)(C)C(=O)OC)C(C)C)[C@@H](C)CC)[C@@H](C)OCc1ccccc1` [Compound 5, Boc-Gly-Val-Aib-Ile-Ala-Thr(OBz)-Aib-Ile-Val-Aib-OMe] (Boc-GV[Aib]IAT(Bn)[Aib]IV[Aib]-OMe): 5 µM; `CC[C@H](C)[C@H](NC(=O)C(C)(C)NC(=O)[C@@H](NC(=O)[C@H](C)NC(=O)OC(C)(C)C)[C@@H](C)OCc1ccccc1)C(=O)N[C@H](C(=O)NC(C)(C)C(=O)OC)C(C)C` [Compound 1, Boc-Ala-Thr(OBz)-Aib-Ile-Val-Aib-OMe] (Boc-AT(Bn)[Aib]IV[Aib]-OMe): 25 µM. Same read-out and setting: to `CC[C@H](C)[C@H](NC(=O)[C@@H](NC(=O)OC(C)(C)C)C(C)C)C(=O)NC(C)(C)C(=O)N[C@H](C(=O)N[C@H](C(=O)NC(C)(C)C(=O)OC)C(C)C)[C@@H](C)OCc1ccccc1` [Compound 6, Boc-Val-Ile-Aib-Thr(OBz)-Val-Aib-OMe] (Boc-VI[Aib]T(Bn)V[Aib]-OMe) belongs 12 µM; to `CC[C@H](C)[C@H](NC(=O)C(C)(C)NC(=O)OC(C)(C)C)C(=O)N[C@@H](C)C(=O)N[C@H](C(=O)NC(C)(C)C(=O)N[C@H](C(=O)N[C@H](C(=O)NC(C)(C)C(=O)OC)C(C)C)[C@@H](C)CC)[C@@H](C)OCc1ccccc1` [Compound 3, Boc-Aib-Ile-Ala-Thr(OBz)-Aib-Ile-Val-Aib-OMe] (Boc-[Aib]IAT(Bn)[Aib]IV[Aib]-OMe), 10 µM.

With `COC(=O)C(C)(C)NC(=O)[C@H](CC(C)C)NC(=O)[C@H](C)NC(=O)C(C)(C)NC(=O)[C@H](CC(C)C)NC(=O)[C@H](C)NC(=O)C(C)(C)NC(=O)[C@H](CC(C)C)NC(=O)[C@H](C)NC(=O)C(C)(C)NC(=O)OC(C)(C)C` [VIIb, Boc-Aib-Ala-Leu-Aib-Ala-Leu-Aib-Ala-Leu-Aib-O-methylester, reference compound] (Boc-[Aib]AL[Aib]AL[Aib]AL[Aib]-OMe), the IC50 was 2 µM.

On to `CC[C@H](C)[C@H](NC(=O)[C@@H](NC(=O)[C@@H](NC(=O)OC(C)(C)C)C(C)C)C(C)C)C(=O)NC(C)(C)C(=O)N[C@H](C(=O)N[C@H](C(=O)NC(C)(C)C(=O)OC)C(C)C)[C@@H](C)OCc1ccccc1` [Compound 7, Boc-Val-Val-Ile-Aib-Thr(OBz)-Val-Aib-OMe] (Boc-VVI[Aib]T(Bn)V[Aib]-OMe), for which the IC50 was found to be 6 µM. On the same count and under the same terms, next, `CC[C@H](C)[C@H](NC(=O)[C@@H](NC(=O)[C@@H](NC(=O)C(C)(C)NC(=O)CNC(=O)[C@@H](NC(=O)OC(C)(C)C)C(C)C)C(C)C)C(C)C)C(=O)NC(C)(C)C(=O)N[C@H](C(=O)N[C@H](C(=O)NC(C)(C)C(=O)OC)C(C)C)[C@@H](C)OCc1ccccc1` [Compound 10, Boc-Val-Gly-Aib-Val-Val-Ile-Aib-Thr(OBz)-Val-Aib-OMe] (Boc-VG[Aib]VVI[Aib]T(Bn)V[Aib]-OMe): 3 µM.

As to `CC[C@H](C)[C@H](NC(=O)[C@@H](NC(=O)[C@@H](NC(=O)C(C)(C)NC(=O)CNC(=O)OC(C)(C)C)C(C)C)C(C)C)C(=O)NC(C)(C)C(=O)N[C@H](C(=O)N[C@H](C(=O)NC(C)(C)C(=O)OC)C(C)C)[C@@H](C)OCc1ccccc1` [Compound 9, Boc-Gly-Aib-Val-Val-Ile-Aib-Thr(OBz)-Val-Aib-OMe] (Boc-G[Aib]VVI[Aib]T(Bn)V[Aib]-OMe), the IC50 worked out at 3 µM. On the same count and under the same terms, next, `CC[C@H](C)[C@H](NC(=O)OC(C)(C)C)C(=O)N[C@@H](C)C(=O)N[C@H](C(=O)NC(C)(C)C(=O)N[C@H](C(=O)N[C@H](C(=O)NC(C)(C)C(=O)OC)C(C)C)[C@@H](C)CC)[C@@H](C)OCc1ccccc1` [Compound 2, Boc-Ile-Ala-Thr(OBz)-Aib-Ile-Val-Aib-OMe] (Boc-IAT(Bn)[Aib]IV[Aib]-OMe): 15 µM.

The test is the same for the next values; noted with them: same cell-based assay, CHO cells stably transfected with human APP; read-out: IC50 (reduction of total Aβ production).
Regarding `COC(=O)C(C)(C)NC(=O)[C@H](NC(=O)[C@H](NC(=O)C(C)(C)NC(=O)[C@@H](Cc1ccc(C(=O)c2ccccc2)cc1)NC(=O)[C@H](NC(=O)[C@H](NC(=O)C(C)(C)NC(=O)CNC(=O)[C@H](NC(=O)OC(C)(C)C)C(C)C)C(C)C)C(C)C)[C@H](C)OCc1ccccc1)C(C)C` [SEQ ID NO:11, Boc-D-Val-Gly-Aib-D-Val-D-Val-D-BPA-Aib-D-Thr(OBz)-D-Val-Aib-OMe] (Boc-[dV]G[Aib][dV][dV][dBpa][Aib][dT](Bn)[dV][Aib]-OMe), the IC50 was found to be 0.1 µM.
